These results are taken from patent US12384775B2, “Pyrimid-2-yl-pyrazole compounds as IRAK inhibitors” (Rigel Pharmaceuticals, Inc., priority 2022, dated 2025).

Series [1] is described as follows: Plasma protein binding, equilibrium dialysis (RED), human. In kind it is in vitro ADME. The conditions noted are these: for recovery at 5 μM / fraction unbound at 5 μM: Human plasma, drug 5 μM; for fraction unbound at 5 μM: read-out: % bound (converted); for Free Fraction in Whole Blood Assay, Human: plasma free fraction. As to the method: Brain and plasma drug binding were performed by equilibrium dialysis using the Rapid Equilibrium Dialysis (RED) device. Briefly, 300 μL of plasma or brain homogenate (1 brain/3 buffer) containing drug (5 μM) was equilibrated (4-18 h) against 500 μL of buffered saline. After incubation, the concentration of drug in plasma/brain homogenate and buffer was determined by LC-MS/MS.
Recovery is calculated by determining the total amount of drug in 50 μL of plasma and 50 μL buffer after the incubation and comparing that value to the amount of drug in 50 μL of a plasma sample that was not incubated. For the protein binding assay, drug was added to the plasma and this plasma was added to one side of the dialysis device while buffer was added to the other. After filing the plasma chamber of the equilibrium device, a 50 μL aliquot of plasma was mixed with 50 μL of buffer and then quenched with stop reagent. Drug recovery=(Drug buffer+Drug plasma)/(drug in initial plasma)

Series [2] deals with IRAK1 (Homo sapiens, UniProt P51617). Kind of series: IRAK1 Adapta assay. Type of series: biochemical. The conditions noted are these: for IC50: n = 1, read-out: IRAK4 IC50 Adapta (n = 1). As to the method:
• Bar-coded Corning, low volume, white 384-well plate (Corning Cat. #4512) • Test Compounds: The Test Compounds are screened in 1% DMSO (final) in the well. For 10 point titrations, 3-fold serial dilutions 10 μM. • Substrate/Kinase Mixture: The 2×IRAK1/Histone H3 (1-20) peptide mixture is prepared in 50 mM HEPES pH 7.5, 0.01% BRIJ-35, 10 mM MgCl2, 1 mM EGTA. • ATP Solution: All ATP Solutions are diluted to a 4× working concentration in water. • ATP Km apparent is previously determined using a radiometric assay except when no substrate is available in which case an Adapta assay is conducted. • Detection Mix: The Detection Mix is prepared in TR-FRET Dilution Buffer. The Detection mix consists of EDTA (30 mM), Eu-anti-ADP antibody (6 nM) and ADP tracer. The detection mix contains the EC60 concentration of tracer for 5-150 μM ATP. IRAK1 Method • 1. 100 nL—100× Test Compound in 100% DMSO • 2. 2.4 μL—30 mM HEPES • 3. 2.5 μL—4×ATP Solution • 4. 5 μL—2× Substrate/Kinase Mixture
The final 10 μL Kinase Reaction consists of 3.17-42 ng IRAK1 and 100 μM Histone H3 (1-20) peptide in 32.5 mM HEPES pH 7.5, 0.005% BRIJ-35, 5 mM MgCl2, 0.5 mM EGTA. • 5. 30-second plate shake • 6. 1-minute centrifuge at 1000× g • 7. 60-minute Kinase Reaction incubation at room temperature • 8. 5 μL—Detection Mix • 9. 30-second plate shake • 10. 1-minute centrifuge at 1000× g • 11. 60-minute Detection Mix equilibration at room temperature • 12. Read on fluorescence plate reader and analyze the data

IRAK1, sequence (P51617 whole entry): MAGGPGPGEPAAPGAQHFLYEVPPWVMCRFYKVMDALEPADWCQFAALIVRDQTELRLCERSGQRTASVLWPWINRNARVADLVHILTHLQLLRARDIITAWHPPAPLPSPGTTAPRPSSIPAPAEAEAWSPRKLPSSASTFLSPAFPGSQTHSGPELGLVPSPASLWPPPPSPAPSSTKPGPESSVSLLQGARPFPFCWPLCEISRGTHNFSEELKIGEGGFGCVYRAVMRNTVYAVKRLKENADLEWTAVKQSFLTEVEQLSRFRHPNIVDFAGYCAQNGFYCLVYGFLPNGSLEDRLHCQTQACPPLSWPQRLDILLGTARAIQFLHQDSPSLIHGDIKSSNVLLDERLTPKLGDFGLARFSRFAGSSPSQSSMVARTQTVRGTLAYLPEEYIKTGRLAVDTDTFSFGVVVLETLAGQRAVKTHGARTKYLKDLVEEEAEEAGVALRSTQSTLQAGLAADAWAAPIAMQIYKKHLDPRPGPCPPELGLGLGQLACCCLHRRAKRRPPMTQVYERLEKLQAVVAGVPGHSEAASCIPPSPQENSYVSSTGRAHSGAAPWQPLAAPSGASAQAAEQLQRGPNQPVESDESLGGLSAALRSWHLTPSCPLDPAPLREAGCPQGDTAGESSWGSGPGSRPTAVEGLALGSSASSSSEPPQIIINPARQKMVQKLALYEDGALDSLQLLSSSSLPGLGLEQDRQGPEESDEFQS

With `CCO[C@H]1CC[C@H](n2cc(NC(=O)c3csc(-c4cn[nH]c4)n3)c(-c3nc(F)ccc3F)n2)CC1` [Comparison-1, reference compound], in series [1], the recovery at 5 μM was determined as 75.5%; the fraction unbound at 5 μM is 0.004; the “Free Fraction in Whole Blood Assay, Human” value is 0.4%. Also, the IC50 in series [2] came out at 14 nM.
Turning to `CCO[C@H]1CC[C@H](n2cc(NC(=O)c3csc(-c4cn[nH]c4)n3)c(-c3ncccn3)n2)CC1` [Compound I-1, N-(1-((1r,4r)-4-ethoxycyclohexyl)-3-(pyrimidin-2-yl)-1H-pyrazol-4-yl)-2-(1H-pyrazol-4-yl)thiazole-4-carboxamide], in series [1], the recovery at 5 μM worked out at 77.1%; the fraction unbound at 5 μM is 0.03; the “Free Fraction in Whole Blood Assay, Human” value stood at 3.0%. Also, in series [1] (in rat, dog, monkey and human proteins), the “times more free than Comparison-1 (free drug)” value is given as “approximately 6 times”. In series [2], the 50% effective concentration (EC50) stood at 4 nM and the 50% inhibitory concentration (IC50) came to 4 nM.
